The values below come from patent US7268125B2 (Azevan Pharmaceuticals, Inc., priority 2001, dated 2007).

Test [1] deals with T1, vasopressin V1a receptor (Homo sapiens, UniProt P37288).
T1 construct: host or cells: CHO cells
In words: Inhibition of phosphatidylinositol turnover. The test is classed as cell-based. Conditions: hV1a cells, [3H]inositol phosphates, versus 10 nM AVP. The source says:
Inhibition of Phosphatidylinositol Turnover.
The physiological effects of vasopressin are mediated through specific G-protein coupled receptors. The vasopressin V1a receptor is coupled to the Gq/G11 family of G proteins and mediates phosphatidylinositol turnover. The agonist or antagonist character of the compounds of the invention may be determined by their ability to inhibit vasopressin-mediated turnover of phosphatidylinositol by the procedure described in the following paragraphs.
Three days prior to the assay, near-confluent cultures of hV1a cells were dissociated and seeded in 6-well tissue culture plates, about 100 wells being seeded from each 75 cm^2 flask (equivalent to 12:1 split ratio). Each well contained 1 mL of growth medium with 2 μCi of [^3H]myo-inositol (American Radiolabeled Chemicals, St. Louis, Mo., USA).
All assays were in triplicate except for basal and 10 nM AVP (both n=6). AVP ((arginine vasopressin), Peninsula Labs, Belmont, Calif., USA (#8103)) was dissolved in 0.1N acetic acid. Test agents were dissolved in DMSO and diluted in DMSO to 200 times the final test concentration. […] The order of incubations was randomized. Incubations were initiated by removing the prelabeling medium, washing the monolayer once with 1 mL of 0.9% NaCl, and transferring the contents of the assay tubes to corresponding wells. The plates were incubated for 1 hour at 37° C. Incubations were terminated by removing the incubation medium and adding 500 μL of ice cold 0.5% (w/v) trichloroacetic acid and allowing the wells to stand for 15 min.
BioRad Poly-Prep Econo-Columns were packed with 0.3 mL of AG 1 X-8 100-200 formate form resin. Resin was mixed 1:1 with water and 0.6 mL added to each column. Columns were then washed with 10 mL water. Scintillation vials (20 mL) were placed under each column. For each well, the contents were transferred to a minicolumn, after which the well was washed with 0.5 mL distilled water, which was also added to the minicolumn. The columns were then washed twice with 5 mL of 5 mM myo-inositol to elute free inositol. Aliquots (1 mL) were transferred to 20 mL scintillation vials and 10 mL of Beckman Ready Protein Plus added. After the myo-inositol wash was complete, empty scintillation vials were placed under the columns, and [^3H]inositol phosphates were eluted with three additions of 1 mL 0.5 M ammonium formate containing 0.1 N formic acid. Elution conditions were optimized to recover inositol mono-, bis-, and trisphosphates, without eluting the more metabolically inert tetrakis-, pentakis-, and hexakis-phosphates. […] Inositol lipids were measured by adding 1 mL of 2% sodium dodecyl sulfate (SDS) to each well, allowing the wells to stand for at least 30 min., and transferring the solution to 20 mL scintillation vials, to which 10 mL Beckman Ready Protein Plus scintillation fluid was then added. Samples were counted in a Beckman LS 3801 liquid scintillation counter for 10 min. Total inositol incorporation for each well was calculated as the sum of free inositol, inositol phosphates, and inositol lipids.
Concentration-response curves for AVP and concentration-inhibition curves for test agents versus 10 nM AVP were analyzed by nonlinear least-squares curve-fitting to a 4-parameter logistic function. […] The curve-fitting was weighted under the assumption that the standard deviation was proportional to dpm of radioactivity. […] Inositol phosphates were expressed as dpm per 10^6 dpm of total inositol incorporation. […]

The target of test [2] is T2, human V1a receptor (Homo sapiens, UniProt P37288).
T2 construct: host or cells: CHO cells
T2 sequence (P37288 whole entry): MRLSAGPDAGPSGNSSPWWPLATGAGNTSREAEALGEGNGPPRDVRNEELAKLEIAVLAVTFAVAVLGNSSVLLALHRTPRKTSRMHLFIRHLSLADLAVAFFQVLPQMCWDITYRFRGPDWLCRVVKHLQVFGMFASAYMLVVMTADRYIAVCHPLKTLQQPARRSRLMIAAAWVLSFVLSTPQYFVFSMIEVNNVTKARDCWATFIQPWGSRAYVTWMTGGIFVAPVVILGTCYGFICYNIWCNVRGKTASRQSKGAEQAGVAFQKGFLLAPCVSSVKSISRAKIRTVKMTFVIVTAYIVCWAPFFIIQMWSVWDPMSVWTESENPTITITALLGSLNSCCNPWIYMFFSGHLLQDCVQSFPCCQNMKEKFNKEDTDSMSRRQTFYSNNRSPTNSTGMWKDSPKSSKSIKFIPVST
As to the kind of experiment: Human vasopressin V1a receptor binding assay. The settings on record: hV1a cell line (CHO), competition with 1 nM 3H-AVP, 45 minutes at 37° C.; read-out: V1a BINDING AFFINITY (IC50 (nM)). Here is the method:
Human Vasopression V1a Receptor Binding Assay.
A cell line expressing the human V1a receptor in CHO cells (henceforth referred to as the hV1a cell line) was obtained from Dr. Michael Brownstein, NIMH, Bethesda, Md., USA. The hV1a cDNA sequence is described by Thibonnier et al., Journal of Biological Chemistry, 269, 3304-3310 (1994), and the expression method was the same as described by Morel et al. (1992). The hV1a cell line was grown in alpha-MEM with 10% fetal bovine serum and 250 ug/ml G418 (Gibco, Grand Island, N.Y., USA). For competitive binding assay, hV1a cells were plated into 6-well culture plate at 1:10 dilution from a confluency flask, and maintained in culture for at least two days. Culture medium was then removed, cells were washed with 2 ml binding buffer (25 mM Hepes, 0.25% BSA, 1×DMEM, PH=7.0). To each well, 990 μl binding buffer containing 1 nM 3H-AVP was added, and followed by 10 μl series diluted Example compounds dissolved in DMSO. […] 100 nM cold AVP (Sigma) was used to assess non-specific binding. Cells were incubated for 45 minutes at 37° C., assay mixture was removed and each well was washed three times with PBS (pH=7.4). 1 ml 2% SDS was added per well and plates were let sit for 30 minutes. The whole content in a well was transferred to a scintillation vial. Each well was rinsed with 0.5 ml PBS which was then added to the corresponding vial. Scintillation fluid (Ecoscint, National Diagnostics, Atlanta, Ga.) was then added at 3 ml per vial. Samples were counted in a liquid scintillation counter (Beckman LS3801). IC50 values were calculated by Prism Curve fitting software.
All of the alkanedioic esters and amides exemplified in the foregoing examples were tested in this assay described of Example 201.

As a reminder, the IC50 is the midpoint of a concentration-inhibition curve.

Molecules are shown by their SMILES.

T1 sequence (P37288 whole entry): as above

Consider `O=C(NCc1cccc(C(F)(F)F)c1)[C@H](CC(=O)N1CCC(N2CCCCC2)CC1)N1C(=O)[C@@H](N2C(=O)OC[C@@H]2c2ccccc2)[C@H]1/C=C/c1ccccc1` [Example 44], for which the “agonist or antagonist character by inhibition of vasopressin-mediated turnover of phosphatidylinositol” value in test [1] was “vasopressin V1a antagonists”. In addition, in test [2], the IC50 was 3.1 nM. The like results for `O=C(NCc1cccc(C(F)(F)F)c1)[C@@H](CC(=O)N1CCC(N2CCCCC2)CC1)N1C(=O)[C@@H](N2C(=O)OC[C@@H]2c2ccccc2)[C@H]1/C=C/c1ccccc1` [Example 133] were, in that order, “vasopressin V1a antagonists” and 2.43 nM.

As for `O=C(NCc1cccc(C(F)(F)F)c1)C(CCC(=O)N1CCN(C2CCCCC2)CC1)N1C(=O)C(N2C(=O)OCC2c2ccccc2)C1C=Cc1ccccc1` (single isomer, unassigned) [Example 110], the “agonist or antagonist character by inhibition of vasopressin-mediated turnover of phosphatidylinositol” value in test [1] is recorded as “vasopressin V1a antagonists”. For the same compound, the IC50 in test [2] was found to be 0.49 nM.

As for `O=C(NCc1cccc(C(F)(F)F)c1)[C@H](CCC(=O)N1CCN(Cc2ccc3c(c2)OCO3)CC1)N1C(=O)[C@@H](N2C(=O)OC[C@@H]2c2ccccc2)[C@H]1/C=C/c1ccccc1` [Example 96], the IC50 in test [2] was found to be 4.35 nM. For the compound `O=C(NCc1cccc(C(F)(F)F)c1)C(CCC(=O)N1CCC(N2CCCCC2)CC1)N1C(=O)C(N2C(=O)OCC2c2ccccc2)C1C=Cc1ccccc1` (single isomer, unassigned) [Example 88], the “agonist or antagonist character by inhibition of vasopressin-mediated turnover of phosphatidylinositol” value in test [1] was “vasopressin V1a antagonists”. Regarding `O=C(NCc1cccc(C(F)(F)F)c1)[C@H](CCC(=O)N1CCN(CCc2ccccc2)CC1)N1C(=O)[C@@H](N2C(=O)OC[C@@H]2c2ccccc2)[C@H]1C=Cc1ccccc1` (single isomer, unassigned) [Example 35], the “agonist or antagonist character by inhibition of vasopressin-mediated turnover of phosphatidylinositol” value in test [1] is recorded as “vasopressin V1a antagonists”. In addition, the IC50 in test [2] was determined as 1.9 nM. Turning to `CC(C)(C)OC(=O)C[C@@H](C(=O)NCc1cccc(C(F)(F)F)c1)N1C(=O)[C@@H](N2C(=O)OC[C@@H]2c2ccccc2)[C@H]1/C=C/c1ccccc1` [Example 19, 2(S)-(tert-Butoxycarbonylmethyl)-2-[3(S)-(4(S)-phenyloxazolidin-2-on-3-yl)-4(R)-(2-styryl)azetidin-2-on-1-yl]acetic acid N-(3-trifluoromethylbenzyl)amide], the IC50 in test [2] was determined as 35 nM.
